Paper PMC4886613 (Journal of natural products, 2009)

Tests used:
Type in all cases: cell-based
[1] = test system: culture of Leishmania donovani; assay: in vitro antileishmanial activity; conditions: in words
Plasmodium falciparum = assay: antimalarial activity; conditions: in words; clone not specified
[2] = test system: Candida albicans ATCC 90028; assay: in vitro antifungal activity, Candida albicans; conditions: ATCC90028, read-out: antifungal C. albicans IC50
[3] = test system: Plasmodium falciparum (D6 clone); assay: in vitro antimalarial activity, D6 clone; conditions: D6, read-out: antimalarial P. falciparum D6 (IC50)
P. falciparum (W2 clone) = assay: microbe, parasite or virus in culture; conditions: Plasmodium falciparum, W2, read-out: antimalarial P. falciparum W2 (IC50)

Q: What does the source list for CCCCCc1cc(O)c2c(c1OC(C)=O)OC(C)(CCC=C(C)C)C=C2 (racemic) [Compound 1, (±)-4-acetoxycannabichromene]?
A: antileishmanial activity [1]: moderate antileishmanial activity; antimalarial activities (Plasmodium falciparum): mild antimalarial activities

Q: How did the antileishmanial activity [1] turn out when C=C(C)C(O)CCC1(C)C=Cc2c(O)cc(CCCCC)cc2O1 (racemic) [Compound 2, (±)-3″-hydroxy-Δ^(4″,5″)-cannabichromene] was run?
A: moderate antileishmanial activity

Q: What does the source list for CCCCCc1cc(O)c(C/C=C(\C)CCC=C(C)C)c(OC(C)=O)c1O [Compound 5, 5-acetyl-4-hydroxycannabigerol]?
A: antileishmanial activity [1]: strong antileishmanial activity; antimalarial activities (Plasmodium falciparum): mild antimalarial activities

Q: Which antileishmanial activity [1] does the source give for CCCCCc1c(C/C=C(\C)CCC=C(C)C)c(O)cc(O)c1OC(C)=O [Compound 6, 4-acetoxy-2-geranyl-5-hydroxy-3-n-pentylphenol] here?
A: moderate antileishmanial activity

Q: With C[C@@H]1[C@H](O)[C@@H](C)/C=C/C=C/C=C/C=C/C=C/C=C/C=C/[C@H](O[C@@H]2O[C@H](C)[C@@H](O)[C@H](N)[C@@H]2O)C[C@@H]2O[C@](O)(C[C@@H](O)C[C@@H](O)[C@H](O)CC[C@@H](O)C[C@@H](O)CC(=O)O[C@H]1C)C[C@H](O)[C@H]2C(=O)O [amphotericin B] as the compound, how does the IC50 [2] read?
A: 0.3 µM

Q: How did the IC50 [3] turn out when CCN(CC)CCCC(C)Nc1ccnc2cc(Cl)ccc12 (stereo not drawn) [chloroquine] was run?
A: 0.1 µM

Q: What about the IC50 (P. falciparum (W2 clone)) of the same compound?
A: 0.5 µM
